Experimental data published in ChEMBL document CHEMBL1132095, “6-arylamino-5,8-quinolinediones and 7-arylamino-5,8-isoquinolinediones as inhibitors of endothelium-dependent vasorelaxation” (Bioorg Med Chem Lett, 1999).

What was measured:
Rattus norvegicus [1] = species on record: Rattus norvegicus; assay: Percent of maximal acetylcholine (ACh)-induced vasorelaxation of the rat aorta; assay type: functional
Rattus norvegicus [2] = species on record: Rattus norvegicus; assay: Inhibitory activity on acetylcholine-induced vasorelaxation of phenylephrine-precontracted rat aorta with intact endothelium; assay type: functional, organism-based

SMILES	EC50 (Rattus norvegicus [2]) [nM]	Emax (Rattus norvegicus [1]) [%]
N=C(NCCC[C@H](N)C(=O)O)N[N+](=O)[O-] [NITROARGININE]	1100	69
O=C1C(Nc2ccc(Cl)cc2)=CC(=O)c2ncccc21	178	86
O=C1C(Nc2cccc(F)c2)=CC(=O)c2ncccc21	805	85
O=C1C(Nc2ccc(F)c(F)c2F)=CC(=O)c2ncccc21	937	72
O=C1C=C(Nc2ccc(F)c(F)c2)C(=O)c2cnccc21	640	81
O=C1C=C(Nc2ccccc2)C(=O)c2ccccc21	239	98
O=C1C(Nc2ccc(F)cc2)=CC(=O)c2ncccc21	541	79
O=C1C=CC(=O)c2ccccc21 [NAPHTHOQUINONE]	127	98
O=C1C(Nc2ccccc2)=CC(=O)c2ncccc21	335	77
O=C1C(Nc2ccc(F)c(F)c2)=CC(=O)c2ncccc21	251	92
O=C1C=C(Nc2ccc(F)c(F)c2F)C(=O)c2cnccc21	1130	87
O=C1C=C(Nc2cccc(F)c2)C(=O)c2cnccc21	562	89
O=C1C=C(Nc2ccccc2)C(=O)c2cnccc21	439	93
O=C1C=C(Nc2ccc(Cl)cc2)C(=O)c2cnccc21	190	96

More lines, in order of falling EC50 (Rattus norvegicus [2]), values ahead:

EC50 (Rattus norvegicus [2]) [nM]	SMILES	Emax (Rattus norvegicus [1]) [%]
1230	O=C1C=C(Nc2ccc(F)cc2)C(=O)c2cnccc21	72
607	O=C1C(Nc2ccc(C(F)(F)F)cc2)=CC(=O)c2ncccc21	91
603	O=C1C(Nc2ccc(OC(F)(F)F)cc2)=CC(=O)c2ncccc21	88
519	O=C1C=CC(=O)c2ncccc21	80
449	O=C1C(Nc2cc(F)cc(F)c2)=CC(=O)c2ncccc21	91
430	O=C1C=C(Nc2ccc(F)cc2F)C(=O)c2cnccc21	96
362	O=C1C=C(Nc2ccc(F)cc2)C(=O)c2ccccc21	98
330	O=C1C=C(Nc2ccc(F)c(F)c2F)C(=O)c2ccccc21	97
302	O=C1C(Nc2ccc(Br)cc2)=CC(=O)c2ncccc21	88
290	O=C1C=C(Nc2cc(F)cc(F)c2)C(=O)c2cnccc21	94
288	O=C1C(Nc2ccc(F)cc2F)=CC(=O)c2ncccc21	94
220	O=C1C=C(Nc2ccc(Cl)cc2)C(=O)c2ccccc21	98
214	O=C1C(Nc2ccc(I)cc2)=CC(=O)c2ncccc21	89
